Test results published in ChEMBL document CHEMBL4616697, “Discovery of Adamantane Carboxamides as Ebola Virus Cell Entry and Glycoprotein Inhibitors” (ACS Med Chem Lett, 2020).
Values after ≈ are worked out from the molar mass of the structure shown.

Experiments:
[1] = Inhibition of glycoprotein in VSV pseudotyped Ebolavirus infected in African green monkey Vero cells assessed as reduction in virus entry incubated for 24 hrs by luciferase reporter gene assay; format: cell-based
[2] = Kinetic aqueous solubility of compound in PBS at pH 6.4 to 7.5 measured after 2 hrs by spectrophotometry analysis; format: physicochemical; conditions: read-out: Kinetic_solubility
[3] = Metabolic stability in human liver microsomes assessed as parent compound remaining at 1 uM pretreated for 30 mins followed by NADPH addition and measured after 60 mins by LC-MS/MS analysis; format: ADME, Microsome; conditions: for remaining at 1 h, 1 µM: liver microsomes, read-out: Stability; for Stability: microsomes, 1 h, 1 µM
[4] = test system: Ebolavirus; test: Antiviral activity against wild type Ebolavirus infected in African green monkey Vero cells assessed as reduction in plaque forming units incubated for 10 days by crystal violet staining based assay; format: functional, organism-based; conditions: Orthoebolavirus, 240 h
[5] = Metabolic stability in Cynomolgus monkey liver microsomes assessed as parent compound remaining at 1 uM pretreated for 30 mins followed by NADPH addition and measured after 60 mins by LC-MS/MS analysis; format: ADME, Macaca fascicularis, Microsome; conditions: read-out: Stability
[6] = Aqueous solubility of compound in PBS at pH 7.4 measured after 2 hrs by spectrophotometry analysis; format: physicochemical
[7] = Metabolic stability in dog liver microsomes assessed as parent compound remaining at 1 uM pretreated for 30 mins followed by NADPH addition and measured after 60 mins by LC-MS/MS analysis; format: ADME, Canis lupus familiaris, Microsome; conditions: read-out: Stability
[8] = Metabolic stability in mouse liver microsomes assessed as parent compound remaining at 1 uM pretreated for 30 mins followed by NADPH addition and measured after 60 mins by LC-MS/MS analysis; format: ADME, Microsome; conditions: read-out: Stability
[9] = Cytotoxicity against African green monkey Vero E6 cells assessed as reduction in cell viability incubated for 10 days by neutral red dye based spectrophotometry analysis; set-up: species or system Vero C1008; conditions: chlorocebus sabaeus
[10] = Metabolic stability in guinea pig liver microsomes assessed as parent compound remaining at 1 uM pretreated for 30 mins followed by NADPH addition and measured after 60 mins by LC-MS/MS analysis; format: ADME, Cavia porcellus, Microsome; conditions: read-out: Stability
[11] = Metabolic stability in rat liver microsomes assessed as parent compound remaining at 1 uM pretreated for 30 mins followed by NADPH addition and measured after 60 mins by LC-MS/MS analysis; format: ADME, Microsome; conditions: read-out: Stability
[12] = Selectivity index, ratio of CC50 for African green monkey Vero E6 cells assessed as reduction in cell viability incubated for 10 days by neutral red dye based spectrophotometry analysis to EC90 for wild type Ebolavirus infected in African green monkey Vero E6 cells assessed as reduction in viral replication by virus yield reduction assay; format: toxicity, Vero C1008; conditions: read-out: Selectivity Index
[13] = test system: Ebolavirus; test: Antiviral activity against wild type Ebolavirus infected in African green monkey Vero E6 cells assessed as inhibition of viral entry compound treated with primary viral infected cells for 60 mins and after 3 days post-infection measured following 10 days of compound incubation with fresh cells infected with primary culture supernatants by virus yield reduction assay; format: functional; conditions: Orthoebolavirus, Vero C1008
[14] = Selectivity index, ratio of CC50 for African green monkey Vero E6 cells assessed as reduction in cell viability incubated for 10 days by neutral red dye based spectrophotometry analysis to EC50 for wild type Ebolavirus infected in African green monkey Vero cells assessed as reduction in plaque forming units incubated for 10 days by crystal violet staining based assay; format: toxicity, Vero C1008; conditions: read-out: Ratio CC50/EC50

| SMILES | EC50 ([1]; Orthoebolavirus, Vero, 24 h) [µM] | solubility kinetic at 2 h [2] [µM] | remaining at 1 h, 1 µM [3] [%] | EC50 ([1]; vero) [µM] | further results |
| --- | --- | --- | --- | --- | --- |
| O=C(NC1CCNCC1)C12CC3CC(C1)CC(c1ccccc1)(C3)C2 | 0.072 | > 100 |  |  |  |
| C[C@H]1C[C@H](NC(=O)C23CC4CC(C)(C2)CC(c2ccccc2)(C4)C3)CCN1 (mixture of isomers) | 0.046 | > 100 | 75 |  |  |
| CC12CC3CC(C(=O)N[C@@H]4CCNC[C@H]4F)(C1)CC(c1ccccc1)(C3)C2 (mixture of isomers) | 0.033 | > 100 | 60 |  |  |
| CCC12CC3CC(C(=O)N[C@H]4CC[C@H](N)CC4)(C1)CC(c1ccccc1)(C3)C2 (mixture of isomers) |  | > 100 | 71 | 0.01 |  |
| CC12CC3CC(C(=O)N4CCNCC4)(C1)CC(c1ccccc1)(C3)C2 (racemic) | 0.13 | > 100 | 100 |  |  |
| CC12CC3CC(C(=O)NC4CCNCC4)(C1)CC(c1ccccc1)(C3)C2 (racemic) |  | > 100 | 75 | 0.043 |  |
| CC12CC3CC(C(=O)N4CCC(N)CC4)(C1)CC(c1ccccc1)(C3)C2 (racemic) | 0.051 | > 100 | 81 |  |  |
| CCC12CC3CC(C(=O)NC4CCNCC4)(C1)CC(c1ccccc1)(C3)C2 (racemic) | 0.02 | > 100 | 69 |  |  |
| CC12CC3CC(C(=O)NCC4CCNCC4)(C1)CC(c1ccccc1)(C3)C2 (racemic) | 0.42 | > 100 |  |  |  |
| CC12CC3CC(C(=O)NC4CC5(CC(N)C5)C4)(C1)CC(c1ccccc1)(C3)C2 (racemic) | 0.04 | > 100 | 79 |  |  |
| CC12CC3CC(C(=O)N[C@H]4CC[C@@H](N)CC4)(C1)CC(c1ccccc1)(C3)C2 (mixture of isomers) | 0.11 | > 100 | 87 |  |  |
| CC12CC3CC(C(=O)N[C@H]4CC[C@H](N)CC4)(C1)CC(c1ccccc1)(C3)C2 (mixture of isomers) |  | > 100 | 92 | 0.031 |  |
| CC12CC3CC(C(=O)N[C@H]4CC[C@H](CN)CC4)(C1)CC(c1ccccc1)(C3)C2 (mixture of isomers) |  | > 100 | 75 | 0.03 |  |
| CC12CC3CC(C(=O)NC4CNC4)(C1)CC(c1ccccc1)(C3)C2 (racemic) | 0.28 | > 100 |  |  |  |
| CC12CC3CC(C(=O)N[C@H]4[C@@H]5CNC[C@@H]54)(C1)CC(c1ccccc1)(C3)C2 (mixture of isomers) | 0.12 | 61 (≈ 21.4 µg/mL) |  |  |  |
| CC12CC3CC(C(=O)NCCN)(C1)CC(c1ccccc1)(C3)C2 (racemic) | 0.25 | > 100 |  |  |  |
| CC12CC3CC(C(=O)N[C@H]4CC[C@H](N)CC4)(C1)CC(c1ccccc1)(C3)C2 (stereo in doubt; 38) |  |  |  | 0.014 | EC50 [4]: 0.24 µM; remaining at 1 h, 1 µM [5]: 89%; solubility at 2 h [6]: > 20 mg/mL; remaining at 1 h, 1 µM [7]: 96%; Stability [3]: 100%; remaining at 1 h, 1 µM [8]: 74%; CC50 at 240 h [9]: 58 µM; remaining at 1 h, 1 µM [10]: 100%; remaining at 1 h, 1 µM [11]: 63%; selectivity ratio at 240 h [12]: 77; EC90 [13]: 0.75 µM |
| CC12CC3CC(C(=O)N[C@H]4CC[C@H](N)CC4)(C1)CC(c1ccccc1)(C3)C2 (stereo in doubt; 39) |  |  |  | 0.14 |  |
| CC12CC3CC(C(=O)N[C@H]4CC[C@H](CN)CC4)(C1)CC(c1ccccc1)(C3)C2 (stereo in doubt; 40) |  |  |  | 0.01 | EC50 [4]: 0.43 µM; remaining at 1 h, 1 µM [5]: 61%; solubility at 2 h [6]: > 20 mg/mL; remaining at 1 h, 1 µM [7]: 85%; Stability [3]: 82%; remaining at 1 h, 1 µM [8]: 27%; CC50 at 240 h [9]: 22 µM; remaining at 1 h, 1 µM [10]: 99%; remaining at 1 h, 1 µM [11]: 27%; selectivity ratio at 240 h [12]: 40; EC90 [13]: 0.55 µM |
| CC12CC3CC(C(=O)N[C@H]4CC[C@H](CN)CC4)(C1)CC(c1ccccc1)(C3)C2 (stereo in doubt; 41) |  |  |  | 0.074 |  |
| CCC12CC3CC(C(=O)N[C@H]4CC[C@H](N)CC4)(C1)CC(c1ccccc1)(C3)C2 (stereo in doubt; 42) |  |  |  | 0.012 | EC50 [4]: 0.14 µM; remaining at 1 h, 1 µM [5]: 60%; solubility at 2 h [6]: > 20 mg/mL; remaining at 1 h, 1 µM [7]: 77%; Stability [3]: 65%; remaining at 1 h, 1 µM [8]: 60%; CC50 at 240 h [9]: 31 µM; remaining at 1 h, 1 µM [10]: 36%; selectivity ratio at 240 h [14]: 221; remaining at 1 h, 1 µM [11]: 46% |
| CCC12CC3CC(C(=O)N[C@H]4CC[C@H](N)CC4)(C1)CC(c1ccccc1)(C3)C2 (stereo in doubt; 43) |  |  |  | 0.35 |  |
